Assay results from ChEMBL document CHEMBL6083190, “Synthesis and mechanistic study of Aβ42 C-terminus domain derived tetrapeptides that inhibit Alzheimer's Aβ-aggregation-induced neurotoxicity” (Bioorg Med Chem Lett, 2024).
Each block holds one compound with its values, some of them ahead of it. Active and inactive are the calls of the source. No cut-off for these calls is given here. Non-standard residues stand in square brackets, D forms with d. Residues, ends and D or L forms follow the SMILES beside them. Aib = CC(C)(N)C(=O)O

What was measured:
SH-SY5Y = test: Inhibition of amyloid beta (1 to 42)-induced toxicity in human SH-SY5Y cells assessed as cell survival at 50 uM incubated for 24 hrs by MTT assay relative to control; type: functional; conditions: read-out: Survival
[1] = Cytotoxicity against rat PC-12 cells assessed as cell viability at 50 uM by MTT assay relative to control; type: toxicity, cell-based; conditions: read-out: Activity
[2] = molecular target: Amyloid-beta precursor protein (Homo sapiens) (UniProt P05067); test: Inhibition of amyloid beta (1 to 42) (unknown origin) self aggregation at 2 to 10 uM by ThT fluorescence assay; conditions: dose 2-10 µM
[3] = molecular target: Amyloid-beta precursor protein (Homo sapiens) (UniProt P05067); test: Inhibition of amyloid beta (1 to 42 ) (unknown origin) self-aggregation assessed as appearance of peak at m/z 1224.4239 at 1:5 amyloid-beta:compound concentration ratio incubated for 72 hrs by HRMS-ESI analysis
[4] = molecular target: Amyloid-beta precursor protein (Homo sapiens) (UniProt P05067); test: Inhibition of amyloid beta (1 to 42) (unknown origin) self aggregation at 10 uM by ThT fluorescence assay relative to control
[5] = molecular target: Amyloid-beta precursor protein (Homo sapiens) (UniProt P05067); test: Inhibition of amyloid beta (1 to 40) (unknown origin) self-aggregation assessed as alpha-helix content at 1:5 amyloid-beta:compound concentration ratio incubated for 48 hrs by CD spectroscopy (reference value: 0 %); design: scale not given: the % may be the effect or the level left
[6] = molecular target: Amyloid-beta precursor protein (Homo sapiens) (UniProt P05067); test: Inhibition of amyloid beta (1 to 42) (unknown origin) self-aggregation assessed as Z-average value measured after 7 days by dynamic light scattering analysis; conditions: time 7.0 day
[7] = molecular target: Amyloid-beta precursor protein (Homo sapiens) (UniProt P05067); test: Inhibition of amyloid beta (1 to 40)/amyloid beta (1 to 42) (unknown origin) self-aggregation assessed as random coil content at 1:5 amyloid-beta:compound concentration ratio incubated for 48 hrs by CD spectroscopy (reference value: 0 %); design: scale not given: the % may be the effect or the level left
[8] = molecular target: Amyloid-beta precursor protein (Homo sapiens) (UniProt P05067); test: Inhibition of amyloid beta (1 to 40)/amyloid beta (1 to 42) (unknown origin) self-aggregation assessed as beta-turn content at 1:5 amyloid-beta:compound concentration ratio incubated for 48 hrs by CD spectroscopy (reference value: 29.2 %); design: scale not given: the % may be the effect or the level left
[9] = Inhibition of amyloid beta-induced neurotoxicity in rat PC-12 cells at 10 uM by MTT assay relative to control; type: functional
[10] = Inhibition of amyloid beta-induced neurotoxicity in rat PC-12 cells at 2 uM by MTT assay relative to control; type: functional
[11] = molecular target: Amyloid-beta precursor protein (Homo sapiens) (UniProt P05067); test: Inhibition of amyloid beta (1 to 42) (unknown origin) self-aggregation assessed as absence of fibrillar aggregates at 1:5 amyloid-beta:compound concentration ratio incubated for 72 hrs by high-resolution transmission electron microscopic analysis
[12] = molecular target: Amyloid-beta precursor protein (Homo sapiens) (UniProt P05067); test: Inhibition of amyloid beta (1 to 42) (unknown origin) self-aggregation assessed as random coil content at 1:5 amyloid-beta:compound concentration ratio incubated for 48 hrs by CD spectroscopy (reference value: 0 %); design: scale not given: the % may be the effect or the level left
[13] = molecular target: Amyloid-beta precursor protein (Homo sapiens) (UniProt P05067); test: Inhibition of amyloid beta (1 to 42) (unknown origin) self-aggregation measured for 7 days by ThT fluorescence assay; conditions: time 7.0 day
[14] = molecular target: Amyloid-beta precursor protein (Homo sapiens) (UniProt P05067); test: Inhibition of amyloid beta (1 to 42) (unknown origin) self-aggregation assessed as beta-sheet content at 1:5 amyloid-beta:compound concentration ratio incubated for 48 hrs by CD spectroscopy (reference value: 55.2 %); design: scale not given: the % may be the effect or the level left
[15] = molecular target: Amyloid-beta precursor protein (Homo sapiens) (UniProt P05067); test: Inhibition of amyloid beta (1 to 42) (unknown origin) self-aggregation assessed as absence of fibrillar aggregates at 1:5 amyloid-beta:compound concentration ratio measured immediately by scanning transmission electron microscopic analysis
[16] = molecular target: Amyloid-beta precursor protein (Homo sapiens) (UniProt P05067); test: Inhibition of amyloid beta (1 to 42 ) (unknown origin) self-aggregation assessed as appearance of peak at m/z 507.3270 at 1:5 amyloid-beta:compound concentration ratio incubated for 72 hrs by HRMS-ESI analysis
[17] = molecular target: Amyloid-beta precursor protein (Homo sapiens) (UniProt P05067); test: Inhibition of amyloid beta (1 to 40)/amyloid beta (1 to 42) (unknown origin) self-aggregation assessed as alpha-helix content at 1:5 amyloid-beta:compound concentration ratio incubated for 48 hrs by CD spectroscopy (reference value: 0 %); design: scale not given: the % may be the effect or the level left
[18] = molecular target: Amyloid-beta precursor protein (Homo sapiens) (UniProt P05067); test: Inhibition of amyloid beta (1 to 40) (unknown origin) self-aggregation assessed as beta-sheet content at 1:5 amyloid-beta:compound concentration ratio incubated for 48 hrs by CD spectroscopy (reference value: 59.7 %); design: scale not given: the % may be the effect or the level left
[19] = molecular target: Amyloid-beta precursor protein (Homo sapiens) (UniProt P05067); test: Inhibition of amyloid beta (1 to 40) (unknown origin) self-aggregation assessed as beta-turn content at 1:5 amyloid-beta:compound concentration ratio incubated for 48 hrs by CD spectroscopy (reference value: 0 %); design: scale not given: the % may be the effect or the level left
[20] = molecular target: Amyloid-beta precursor protein (Homo sapiens) (UniProt P05067); test: Inhibition of amyloid beta (1 to 42 ) (unknown origin) self aggregation in liposome-mimicked rat neuronal membrane assessed as fluorescence quenching at 1:5 amyloid-beta:compound concentration ratio incubated for 72 hrs by ANS fluorescence spectra; type: cell membranes; conditions: Neuron
[21] = molecular target: Amyloid-beta precursor protein (Homo sapiens) (UniProt P05067); test: Inhibition of amyloid beta (1 to 42) (unknown origin) self aggregation at 2 uM by ThT fluorescence assay relative to control
[22] = molecular target: Amyloid-beta precursor protein (Homo sapiens) (UniProt P05067); test: Inhibition of amyloid beta (1 to 42) (unknown origin) self-aggregation assessed as beta-turn content at 1:5 amyloid-beta:compound concentration ratio incubated for 48 hrs by CD spectroscopy (reference value: 44.8 %); design: scale not given: the % may be the effect or the level left
[23] = molecular target: Amyloid-beta precursor protein (Homo sapiens) (UniProt P05067); test: Inhibition of amyloid beta (1 to 42 ) (unknown origin) self-aggregation assessed as appearance of peak at m/z 722.4940 at 1:5 amyloid-beta:compound concentration ratio incubated for 72 hrs by HRMS-ESI analysis
[24] = molecular target: Amyloid-beta precursor protein (Homo sapiens) (UniProt P05067); test: Inhibition of amyloid beta (1 to 42) (unknown origin) self-aggregation assessed as reduction in polydispersity index measured after 7 days by dynamic light scattering analysis; conditions: time 7.0 day
[25] = molecular target: Amyloid-beta precursor protein (Homo sapiens) (UniProt P05067); test: Inhibition of amyloid beta (1 to 42) (unknown origin) self-aggregation assessed as absence of fibrillar aggregates at 1:5 amyloid-beta:compound concentration ratio incubated for 72 hrs by scanning transmission electron microscopic analysis
PC-12 [26] = test: Protection against amyloid beta-induced neurotoxicity in rat PC-12 cells assessed as cell viability at 2 uM by MTT assay (reference value: 63.6 %); type: functional; conditions: read-out: Activity
[27] = Cytotoxicity against rat PC-12 cells assessed as cell viability at 20 uM by MTT assay relative to control; type: toxicity, cell-based; conditions: read-out: Activity
PC-12 [28] = test: Protection against amyloid beta-induced neurotoxicity in rat PC-12 cells assessed as cell viability at 10 uM by MTT assay (reference value: 63.6 %); type: functional; conditions: read-out: Activity
[29] = molecular target: Amyloid-beta precursor protein (Homo sapiens) (UniProt P05067); test: Inhibition of amyloid beta (1 to 40) (unknown origin) self-aggregation assessed as random coil content at 1:5 amyloid-beta:compound concentration ratio incubated for 48 hrs by CD spectroscopy (reference value: 40.3 %); design: scale not given: the % may be the effect or the level left
[30] = molecular target: Amyloid-beta precursor protein (Homo sapiens) (UniProt P05067); test: Inhibition of amyloid beta (1 to 42) (unknown origin) self-aggregation assessed as absence of fibrillar aggregates at 1:5 amyloid-beta:compound concentration ratio measured immediately by high-resolution transmission electron microscopic analysis
[31] = molecular target: Amyloid-beta precursor protein (Homo sapiens) (UniProt P05067); test: Inhibition of amyloid beta (1 to 40)/amyloid beta (1 to 42) (unknown origin) self-aggregation assessed as beta-sheet content at 1:5 amyloid-beta:compound concentration ratio incubated for 48 hrs by CD spectroscopy (reference value: 70.8 %); design: scale not given: the % may be the effect or the level left
[32] = molecular target: Amyloid-beta precursor protein (Homo sapiens) (UniProt P05067); test: Inhibition of amyloid beta (1 to 42) (unknown origin) self-aggregation assessed as alpha-helix content at 1:5 amyloid-beta:compound concentration ratio incubated for 48 hrs by CD spectroscopy (reference value: 0 %); design: scale not given: the % may be the effect or the level left
[33] = Inhibition of amyloid beta-induced neurotoxicity in rat PC-12 cells at 4 uM by MTT assay relative to control; type: functional
[34] = molecular target: Amyloid-beta precursor protein (Homo sapiens) (UniProt P05067); test: Inhibition of amyloid beta (1 to 42 ) (unknown origin) self-aggregation assessed as decrease in appearance of peak at m/z 685.4383 at 1:5 amyloid-beta:compound concentration ratio incubated for 72 hrs by HRMS-ESI analysis
PC-12 [35] = test: Protection against amyloid beta-induced neurotoxicity in rat PC-12 cells assessed as cell viability at 4 uM by MTT assay (reference value: 63.6 %); type: functional; conditions: read-out: Activity

Chain of Amyloid-beta precursor protein (Homo sapiens) (P05067 whole entry): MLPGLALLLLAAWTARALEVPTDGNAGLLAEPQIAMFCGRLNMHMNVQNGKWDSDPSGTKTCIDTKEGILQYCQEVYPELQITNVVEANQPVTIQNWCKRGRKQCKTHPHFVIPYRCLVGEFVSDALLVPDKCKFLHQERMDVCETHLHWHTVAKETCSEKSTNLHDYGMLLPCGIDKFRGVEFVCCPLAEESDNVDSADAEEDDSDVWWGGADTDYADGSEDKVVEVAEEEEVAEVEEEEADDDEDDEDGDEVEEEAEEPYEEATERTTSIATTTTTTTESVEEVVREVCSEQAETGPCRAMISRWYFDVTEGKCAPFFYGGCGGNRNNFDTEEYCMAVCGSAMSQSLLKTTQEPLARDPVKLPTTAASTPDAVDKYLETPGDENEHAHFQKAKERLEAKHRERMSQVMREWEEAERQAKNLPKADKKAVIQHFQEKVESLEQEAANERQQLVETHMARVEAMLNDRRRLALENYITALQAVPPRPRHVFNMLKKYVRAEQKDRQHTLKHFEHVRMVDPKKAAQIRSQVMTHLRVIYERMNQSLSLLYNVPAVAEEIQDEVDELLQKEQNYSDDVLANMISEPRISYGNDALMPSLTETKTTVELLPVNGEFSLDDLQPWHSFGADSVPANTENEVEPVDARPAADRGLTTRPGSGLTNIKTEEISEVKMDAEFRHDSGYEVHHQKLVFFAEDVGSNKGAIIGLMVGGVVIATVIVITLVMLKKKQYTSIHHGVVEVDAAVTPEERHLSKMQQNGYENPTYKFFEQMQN

Compound: H-RIIGL-NH2
viability at 50 µM (SH-SY5Y): 84%

inhibition [2]: Active | inhibition [4]: 80.8% | Activity [5]: 21.6% | inhibition [6]: Active | Activity [7]: 25.7% | Activity [8]: 48.4% | inhibition [11]: Active | Activity [12]: 36.6% | inhibition [13]: Active | Activity [14]: 0% | inhibition [15]: Active | Activity [17]: 23.9% | Activity [18]: 0% | Activity [19]: 40.3% | inhibition [21]: 62.7% | Activity [22]: 49% | inhibition [24]: Active | inhibition [25]: Active | Activity [29]: 38.1% | inhibition [30]: Active | Activity [31]: 1.9% | Activity [32]: 14.4% | inhibition [34]: Active; Peak Corresponds To Aggregates
Compound: CC[C@H](C)[C@H](NC(=O)[C@H](C)N)C(=O)NC(C)(C)C(=O)N[C@H](C(N)=O)C(C)C (H-AI[Aib]V-NH2)
viability at 50 µM [1]: 97.9% | inhibition [3]: Active; Peaks Corresponds To [(Amyloidbeta (21 To 42) + M)4+ ] | inhibition at 10 µM [9]: 73% | inhibition at 2 µM [10]: 7% | inhibition [16]: Active; Peaks Corresponds To [Amyloidbeta (1 To 42) + M]4+ | inhibition [20]: Active; Blue Shift Of 2 To 3 Nm And Isoemissive Point At ~427 Nm Observed | inhibition [23]: Active; Peaks Corresponds To [Amyloidbeta (1 To 42) + M + Na]7+ | viability at 2 µM (PC-12 [26]): 66.1% | viability at 20 µM [27]: 98.5% | viability at 10 µM (PC-12 [28]): 90.2% | inhibition at 4 µM [33]: 53% | viability at 4 µM (PC-12 [35]): 82.8%
